# Source: patent US10323001B2, “Compositions for modulating a kinase cascade and methods of use thereof” (Athenex, Inc., priority 2006, dated 2019)
# Legend:
# Src protein substrates [1] = test: Src substrate phosphorylation in c-Src transformed NIH3T3 cells; type: cell-based; settings: c-Src (527F, constitutively active and transforming) transformed NIH3T3 cells
# Excerpt: (§1) Compounds of the invention or salts thereof may be Src signaling inhibitors that bind in the Src peptide substrate site. The activity of various compounds of the invention and salts has been studied in c-Src ([…], constitutively active and transforming) transformed NIH3T3 cells and in human colon cancer cells (HT29).
# Src protein substrates [2] = test: Src substrate phosphorylation in human colon cancer cells (HT29); type: cell-based
# Excerpt: as §1
# [3] = Moisture-sorption analysis (Hiden IGAsorp); type: physicochemical; settings: 90% RH, 25° C.; listed as Free base
# Procedure: Moisture-sorption experiments were performed using a Hiden IGAsorp Moisture Sorption instrument on KX2-391.MSA obtained in accordance with the process of the present invention (Example 4). First, the sample was dried at 0% Relative Humidity (RH) and 25° C. until an equilibrium weight was reached or for a maximum of four hours. The sample was then subjected to an isothermal (25° C.) adsorption scan from 10 to 90% RH in steps of 10%. The sample was allowed to equilibrate to an asymptotic weight at each point for a maximum of four hours. Following adsorption, a desorption scan from 85 to 0% RH (at 25° C.) was run in steps of −10% again allowing a maximum of four hours for equilibration to an asymptotic weight. The sample was then dried for one hour at 80° C. and the resulting solid analyzed by XRPD. […] FIG. 10 depicts percent change of water content as a function of relative humidity for KX2-391.MSA, Form A.
# Moisture-sorption experiments were performed using a Hiden IGAsorp Moisture Sorption Instrument on KX2-391.2HCl obtained in accordance with the process of the present invention (Example 3). First, the sample was dried at 0% Relative Humidity (RH) and 25° C. until an equilibrium weight was reached or for a maximum of four hours. The sample was then subjected to an isothermal (25° C.) adsorption scan from 10 to 90% RH in steps of 10%. The sample was allowed to equilibrate to an asymptotic weight at each point for a maximum of four hours. Following adsorption, a desorption scan from 85 to 0% RH (at 25° C.) was run in steps of −10% again allowing a maximum of four hours for equilibration to an asymptotic weight. The sample was then dried for one hour at 80° C. and the resulting solid analyzed by XRPD.
smiles,measurement,setting,value
"O=C(Cc1ccc(-c2ccc(OCCN3CCOCC3)cc2)cn1)NCc1ccccc1 [KX2-391, 2-(5-(4-(2-morpholinoethoxy)phenyl)pyridin-2-yl)-N-benzylacetamide]",phosphorylation level of known Src protein substrates,Src protein substrates [1],reduce the phosphorylation level of known Src protein substrates in a dose-dependent fashion
same,phosphorylation level of known Src protein substrates,Src protein substrates [2],reduce the phosphorylation level of known Src protein substrates in a dose-dependent fashion
same,Moisture Sorption Wt % Water @ 90% RH,[3],3.7 wt %
